In US20250136578A1 (Kolm Therapeutics Inc., priority 2023, published 2025):

What was measured:
VCaP cells = experiment: VCaP growth inhibition assay (CTG); assay type: cell-based; settings: Homo sapiens, 216 h, 30 pM R1881, 9 days
Procedure, shortened: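 Growth was measured by CTG luminescence after a 9-day exposure of VCaP cells to compound (final 10 fM–100 nM, fivefold steps) in the presence of 30 pM final R1881, in phenol red-free DMEM/5% CSS. IC50 values were derived by nonlinear 4-parameter regression of RLU against concentration.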

AR / CBP ternary complex = AR / CBP ternary complex (Homo sapiens, UniProt P10275+Q92793); experiment: Ternary complex formation assay (sandwich ELISA, AR capture, CBP antibody detection) in VCaP cell lysates; assay type: cell-based; settings: treated 1.5 hours, rabbit CBP or p300 antibody detection, average, read-out: Average Ternary Complex
Sequence of AR / CBP ternary complex (P10275 whole entry): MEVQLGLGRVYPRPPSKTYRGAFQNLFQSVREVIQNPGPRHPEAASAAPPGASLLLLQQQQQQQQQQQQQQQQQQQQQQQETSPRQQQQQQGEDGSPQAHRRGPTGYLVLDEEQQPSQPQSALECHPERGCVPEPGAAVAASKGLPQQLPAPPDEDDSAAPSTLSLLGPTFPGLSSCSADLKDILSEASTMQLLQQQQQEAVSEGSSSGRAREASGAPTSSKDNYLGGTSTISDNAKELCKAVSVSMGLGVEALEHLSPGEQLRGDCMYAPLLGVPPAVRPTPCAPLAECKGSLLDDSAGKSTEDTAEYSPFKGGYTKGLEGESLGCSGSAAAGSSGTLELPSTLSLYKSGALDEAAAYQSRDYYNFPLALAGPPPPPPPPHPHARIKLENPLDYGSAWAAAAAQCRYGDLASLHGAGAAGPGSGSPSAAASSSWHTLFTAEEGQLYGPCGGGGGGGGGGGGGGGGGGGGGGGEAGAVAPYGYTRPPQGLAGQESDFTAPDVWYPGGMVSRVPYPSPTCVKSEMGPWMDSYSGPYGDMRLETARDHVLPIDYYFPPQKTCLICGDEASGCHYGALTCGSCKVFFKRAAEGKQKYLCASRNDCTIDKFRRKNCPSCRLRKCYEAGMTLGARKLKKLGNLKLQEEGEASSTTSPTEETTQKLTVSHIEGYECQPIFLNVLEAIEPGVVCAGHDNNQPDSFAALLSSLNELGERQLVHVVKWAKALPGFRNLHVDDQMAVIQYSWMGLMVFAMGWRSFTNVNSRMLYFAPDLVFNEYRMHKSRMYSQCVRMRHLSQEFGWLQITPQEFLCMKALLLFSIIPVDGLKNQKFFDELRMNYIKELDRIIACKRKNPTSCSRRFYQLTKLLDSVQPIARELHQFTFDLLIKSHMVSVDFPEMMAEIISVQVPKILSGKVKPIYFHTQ
Sequence of AR / CBP ternary complex (Q92793 2-2442): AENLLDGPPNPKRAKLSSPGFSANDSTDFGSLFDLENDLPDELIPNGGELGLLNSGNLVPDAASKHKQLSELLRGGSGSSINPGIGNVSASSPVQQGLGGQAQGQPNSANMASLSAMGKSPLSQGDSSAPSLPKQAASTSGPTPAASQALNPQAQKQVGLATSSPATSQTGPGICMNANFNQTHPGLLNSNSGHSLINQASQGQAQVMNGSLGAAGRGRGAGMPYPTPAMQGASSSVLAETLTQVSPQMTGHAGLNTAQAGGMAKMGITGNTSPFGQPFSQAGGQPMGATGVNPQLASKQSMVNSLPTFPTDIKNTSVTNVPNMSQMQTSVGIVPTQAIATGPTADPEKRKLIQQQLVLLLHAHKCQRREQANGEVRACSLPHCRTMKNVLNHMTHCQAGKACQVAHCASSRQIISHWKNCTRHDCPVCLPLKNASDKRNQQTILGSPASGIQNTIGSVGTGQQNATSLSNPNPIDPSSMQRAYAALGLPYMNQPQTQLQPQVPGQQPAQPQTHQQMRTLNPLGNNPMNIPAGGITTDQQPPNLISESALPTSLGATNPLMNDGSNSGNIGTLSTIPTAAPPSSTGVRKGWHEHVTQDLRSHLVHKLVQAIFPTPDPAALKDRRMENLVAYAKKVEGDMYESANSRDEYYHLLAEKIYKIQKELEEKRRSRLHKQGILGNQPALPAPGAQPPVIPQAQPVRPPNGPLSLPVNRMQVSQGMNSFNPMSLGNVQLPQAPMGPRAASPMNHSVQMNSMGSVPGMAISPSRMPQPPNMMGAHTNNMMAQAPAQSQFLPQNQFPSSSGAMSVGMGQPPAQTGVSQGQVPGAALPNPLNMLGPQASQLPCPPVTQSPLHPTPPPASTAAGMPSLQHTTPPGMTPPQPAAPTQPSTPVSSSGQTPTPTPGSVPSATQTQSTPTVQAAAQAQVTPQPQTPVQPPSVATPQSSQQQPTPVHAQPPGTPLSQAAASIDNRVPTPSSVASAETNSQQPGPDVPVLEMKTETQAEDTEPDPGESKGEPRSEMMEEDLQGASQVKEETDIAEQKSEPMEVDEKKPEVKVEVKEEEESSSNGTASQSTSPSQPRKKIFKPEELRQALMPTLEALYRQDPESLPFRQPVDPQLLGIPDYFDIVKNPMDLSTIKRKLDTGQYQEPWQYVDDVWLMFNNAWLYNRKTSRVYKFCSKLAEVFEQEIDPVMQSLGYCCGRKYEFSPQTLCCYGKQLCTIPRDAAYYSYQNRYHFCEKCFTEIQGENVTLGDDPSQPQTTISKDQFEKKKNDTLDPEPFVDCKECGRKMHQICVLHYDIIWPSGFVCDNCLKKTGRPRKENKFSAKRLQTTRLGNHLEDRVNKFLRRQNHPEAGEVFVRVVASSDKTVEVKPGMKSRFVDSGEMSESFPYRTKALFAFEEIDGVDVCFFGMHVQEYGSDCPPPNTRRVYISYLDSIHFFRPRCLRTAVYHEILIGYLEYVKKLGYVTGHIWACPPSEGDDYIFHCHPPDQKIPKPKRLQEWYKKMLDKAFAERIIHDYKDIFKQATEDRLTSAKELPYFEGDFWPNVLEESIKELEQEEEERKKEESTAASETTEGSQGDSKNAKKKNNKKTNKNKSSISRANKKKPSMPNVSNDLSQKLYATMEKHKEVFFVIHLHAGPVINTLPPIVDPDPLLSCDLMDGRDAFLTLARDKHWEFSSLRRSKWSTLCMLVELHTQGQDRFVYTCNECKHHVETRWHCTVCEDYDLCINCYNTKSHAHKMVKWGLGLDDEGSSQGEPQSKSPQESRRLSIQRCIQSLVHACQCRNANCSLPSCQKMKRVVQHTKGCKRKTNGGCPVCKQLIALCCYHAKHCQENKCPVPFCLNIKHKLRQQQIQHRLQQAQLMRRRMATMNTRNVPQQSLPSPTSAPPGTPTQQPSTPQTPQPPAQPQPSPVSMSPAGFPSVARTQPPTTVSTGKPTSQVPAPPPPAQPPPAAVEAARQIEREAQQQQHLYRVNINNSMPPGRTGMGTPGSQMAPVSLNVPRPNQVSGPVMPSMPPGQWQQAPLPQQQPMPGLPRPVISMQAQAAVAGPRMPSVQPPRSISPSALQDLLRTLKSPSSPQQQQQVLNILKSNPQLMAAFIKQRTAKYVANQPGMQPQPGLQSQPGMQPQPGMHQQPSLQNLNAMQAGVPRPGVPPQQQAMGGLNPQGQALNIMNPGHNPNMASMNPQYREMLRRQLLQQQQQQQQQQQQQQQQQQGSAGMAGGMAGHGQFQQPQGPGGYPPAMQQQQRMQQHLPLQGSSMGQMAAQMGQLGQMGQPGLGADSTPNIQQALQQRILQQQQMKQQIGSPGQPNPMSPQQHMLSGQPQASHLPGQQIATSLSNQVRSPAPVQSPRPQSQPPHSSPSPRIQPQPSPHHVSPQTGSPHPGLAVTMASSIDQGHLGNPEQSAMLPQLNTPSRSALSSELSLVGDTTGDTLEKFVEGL
Procedure, shortened: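 Sandwich ELISA: plates were coated with anti-AR antibody (AR441) and given lysates of VCaP cells treated 1.5 h with bifunctional compound in charcoal-stripped serum. Co-captured CBP or p300 was probed with rabbit mAbs and HRP secondary. Chemifluorescent signal (ex 570/em 585) was read at 0, 5 and 15 min.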

| SMILES | IC50 (VCaP cells) [nM] | EC50 (AR / CBP ternary complex) [nM] |
| --- | --- | --- |
| CC(=O)N1CCc2c(c(N3CCCc4cc(-c5cnn(C)c5)c(C(F)F)cc43)nn2C2CC3(CCN(C4CCN(c5ccc(C(=O)N[C@H]6CC[C@H](Oc7ccc(C#N)c(Cl)c7)CC6)nn5)CC4)CC3)C2)C1 [Compound 239, 6-[4-[2-[5-acetyl-3-[7-(difluoromethyl)-6-(1-methylpyrazol-4-yl)-3,4-dihydro-2H-quinolin-1-yl]-6,7-dihydro-4H-pyrazolo[4,3-c]pyridin-1-yl]-7-azaspiro[3.5]nonan-7-yl]-1-piperidyl]-N-[4-(3-chloro-4-cyano-phenoxy)cyclohexyl]pyridazine-3-carboxamide] | ≤ 0.1 | < 1 |
| CC(=O)N1CCc2c(c(N3CCCc4cc(-c5cnn(C)c5)c(C(F)F)cc43)nn2C2CCN([C@H]3C[C@H](Oc4ccc(C(=O)N[C@H]5CC[C@H](Oc6ccc(C#N)c(Cl)c6)CC5)nn4)C3)CC2)C1 [Compound 240, 6-[3-[4-[5-acetyl-3-[7-(difluoromethyl)-6-(1-methylpyrazol-4-yl)-3,4-dihydro-2H-quinolin-1-yl]-6,7-dihydro-4H-pyrazolo[4,3-c]pyridin-1-yl]-1-piperidyl]cyclobutoxy]-N-[4-(3-chloro-4-cyano-phenoxy)cyclohexyl]pyridazine-3-carboxamide] | 0.1 to 1 | < 1 |
| CC(=O)N1CCc2c(c(N3CCCc4cc(-c5cnn(C)c5)c(C(F)F)cc43)nn2[C@H]2CC[C@H](C3CCC4(CC3)CN(c3ccc(C(=O)N[C@H]5CC[C@H](Oc6ccc(C#N)c(Cl)c6)CC5)nn3)C4)CC2)C1 [Compound 241, 6-[7-[4-[5-acetyl-3-[7-(difluoromethyl)-6-(1-methylpyrazol-4-yl)-3,4-dihydro-2H-quinolin-1-yl]-6,7-dihydro-4H-pyrazolo[4,3-c]pyridin-1-yl]cyclohexyl]-2-azaspiro[3.5]nonan-2-yl]-N-[4-(3-chloro-4-cyano-phenoxy)cyclohexyl]pyridazine-3-carboxamide] | 0.1 to 1 | 1 to 10 |
| CC(=O)N1CCc2c(c(N3CCCc4cc(-c5cnn(C)c5)c(C(F)F)cc43)nn2[C@H]2CC[C@@H](C3CCC4(CC3)CN(c3ccc(C(=O)N[C@H]5CC[C@H](Oc6ccc(C#N)c(Cl)c6)CC5)nn3)C4)CC2)C1 [Compound 242, 6-[7-[4-[5-acetyl-3-[7-(difluoromethyl)-6-(1-methylpyrazol-4-yl)-3,4-dihydro-2H-quinolin-1-yl]-6,7-dihydro-4H-pyrazolo[4,3-c]pyridin-1-yl]cyclohexyl]-2-azaspiro[3.5]nonan-2-yl]-N-[4-(3-chloro-4-cyano-phenoxy)cyclohexyl]pyridazine-3-carboxamide] | 0.1 to 1 | < 1 |
| COC(=O)N1c2ccc3c(nc(Cc4ccccc4)n3[C@@H]3CCC[C@H](OC4CCN(c5ccc(C(=O)N[C@H]6CC[C@H](Oc7ccc(C#N)c(Cl)c7)CC6)nn5)CC4)C3)c2CC[C@@H]1C [Compound 244, methyl (7S)-2-benzyl-3-[3-[[1-[6-[[4-(3-chloro-4-cyano-phenoxy)cyclohexyl]carbamoyl]pyridazin-3-yl]-4-piperidyl]oxy]cyclohexyl]-7-methyl-8,9-dihydro-7H-imidazo[4,5-f]quinoline-6-carboxylate] | 0.1 to 1 | < 1 |
| CC(=O)N1CCc2c(c(N3CCCc4cc(-c5cnn(C)c5)c(C(F)F)cc43)nn2C2CCN(C3CCC4(CC3)CC(Oc3ccc(C(=O)N[C@H]5CC[C@H](Oc6ccc(C#N)c(Cl)c6)CC5)nn3)C4)CC2)C1 (stereo partly shown) [Compound 245, 6-[7-[4-[5-acetyl-3-[7-(difluoromethyl)-6-(1-methylpyrazol-4-yl)-3,4-dihydro-2H-quinolin-1-yl]-6,7-dihydro-4H-pyrazolo[4,3-c]pyridin-1-yl]-1-piperidyl]spiro[3.5]nonan-2-yl]oxy-N-[4-(3-chloro-4-cyano-phenoxy)cyclohexyl]pyridazine-3-carboxamide] | ≤ 0.1 | < 1 |
| CC(=O)N1CCc2c(c(N3CCCc4cc(-c5cnn(C)c5)c(C(F)F)cc43)nn2C2CCC3(CC2)CC(Oc2ccc(C(=O)N[C@H]4CC[C@H](Oc5ccc(C#N)c(C(F)(F)F)c5)CC4)nn2)C3)C1 (stereo partly shown) [Compound 246, 6-[7-[5-acetyl-3-[7-(difluoromethyl)-6-(1-methylpyrazol-4-yl)-3,4-dihydro-2H-quinolin-1-yl]-6,7-dihydro-4H-pyrazolo[4,3-c]pyridin-1-yl]spiro[3.5]nonan-2-yl]oxy-N-[4-[4-cyano-3-(trifluoromethyl)phenoxy]cyclohexyl]pyridazine-3-carboxamide] | 1 to 100 | < 1 |
| CC(=O)N1CCc2c(c(N3CCCc4cc(-c5cnn(C)c5)c(C(F)F)cc43)nn2C2CCN(C3CC4(CC(Oc5ccc(C(=O)N[C@H]6CC[C@H](Oc7ccc(C#N)c(Cl)c7)CC6)nn5)C4)C3)CC2)C1 (stereo partly shown) [Compound 247, 6-[6-[4-[5-acetyl-3-[7-(difluoromethyl)-6-(1-methylpyrazol-4-yl)-3,4-dihydro-2H-quinolin-1-yl]-6,7-dihydro-4H-pyrazolo[4,3-c]pyridin-1-yl]-1-piperidyl]spiro[3.3]heptan-2-yl]oxy-N-[4-(3-chloro-4-cyano-phenoxy)cyclohexyl]pyridazine-3-carboxamide] | ≤ 0.1 | < 1 |
| CC(=O)N1CCc2c(c(N3CCCc4cc(-c5cnn(C)c5)c(C(F)F)cc43)nn2[C@H]2CC[C@H](N3CCC4(CC3)CC(Oc3ccc(C(=O)N[C@H]5CC[C@H](Oc6ccc(C#N)c(Cl)c6)CC5)nn3)C4)CC2)C1 [Compound 248] | 0.1 to 1 | < 1 |
| CC(=O)N1CCc2c(c(N3CCCc4cc(-c5cnn(C)c5)c(C(F)F)cc43)nn2[C@H]2CC[C@H](N3CC4(CC(Oc5ccc(C(=O)N[C@H]6CC[C@H](Oc7ccc(C#N)c(Cl)c7)CC6)nn5)C4)C3)CC2)C1 [Compound 249] | ≤ 0.1 | < 1 |
| CC(=O)N1CCc2c(c(N3CCCc4cc(-c5cnn(C)c5)c(C(F)F)cc43)nn2[C@H]2CC[C@H](N3CCN(c4ccc(C(=O)N[C@H]5CC[C@H](Oc6ccc(C#N)c(Cl)c6)CC5)nn4)CC3)CC2)C1 [Compound 250, 6-[4-[4-[5-acetyl-3-[7-(difluoromethyl)-6-(1-methylpyrazol-4-yl)-3,4-dihydro-2H-quinolin-1-yl]-6,7-dihydro-4H-pyrazolo[4,3-c]pyridin-1-yl]cyclohexyl]piperazin-1-yl]-N-[4-(3-chloro-4-cyano-phenoxy)cyclohexyl]pyridazine-3-carboxamide] | ≤ 0.1 | < 1 |
| CC(=O)N1CCc2c(c(N3CCCc4cc(-c5cnn(C)c5)c(C(F)F)cc43)nn2C2CCN(C3CC4(CCC(Oc5ccc(C(=O)N[C@H]6CC[C@H](Oc7ccc(C#N)c(Cl)c7)CC6)nn5)CC4)C3)CC2)C1 (stereo partly shown) [Compound 252, 6-[2-[4-[5-acetyl-3-[7-(difluoromethyl)-6-(1-methylpyrazol-4-yl)-3,4-dihydro-2H-quinolin-1-yl]-6,7-dihydro-4H-pyrazolo[4,3-c]pyridin-1-yl]-1-piperidyl]spiro[3.5]nonan-7-yl]oxy-N-[4-(3-chloro-4-cyano-phenoxy)cyclohexyl]pyridazine-3-carboxamide] | ≤ 0.1 | < 1 |
| CC(=O)N1CCc2c(c(N3CCCc4cc(-c5cscn5)c(C(F)F)cc43)nn2C2CCN(CC3CCN(c4ccc(C(=O)N[C@H]5CC[C@H](Oc6ccc(C#N)c(Cl)c6)CC5)nn4)CC3)CC2)C1 [Compound 253, 6-[4-[[4-[5-acetyl-3-[7-(difluoromethyl)-6-thiazol-4-yl-3,4-dihydro-2H-quinolin-1-yl]-6,7-dihydro-4H-pyrazolo[4,3-c]pyridin-1-yl]-1-piperidyl]methyl]-1-piperidyl]-N-[4-(3-chloro-4-cyano-phenoxy)cyclohexyl] pyridazine-3-carboxamide] | ≤ 0.1 | < 1 |
| CC(=O)N1CCc2c(c(N3CCCc4cc(-c5ccn(C)n5)c(C(F)F)cc43)nn2C2CCN(CC3CCN(c4ccc(C(=O)N[C@H]5CC[C@H](Oc6ccc(C#N)c(Cl)c6)CC5)nn4)CC3)CC2)C1 [Compound 254, 6-[4-[[4-[5-acetyl-3-[7-(difluoromethyl)-6-(1-methylpyrazol-3-yl)-3,4-dihydro-2H-quinolin-1-yl]-6,7-dihydro-4H-pyrazolo[4,3-c]pyridin-1-yl]-1-piperidyl]methyl]-1-piperidyl]-N-[4-(3-chloro-4-cyano-phenoxy)cyclohexyl]pyridazine-3-carboxamide] | ≤ 0.1 | < 1 |
| CC(=O)N1CCc2c(c(N3CCCc4cc(-c5nccs5)c(C(F)F)cc43)nn2C2CCN(CC3CCN(c4ccc(C(=O)N[C@H]5CC[C@H](Oc6ccc(C#N)c(Cl)c6)CC5)nn4)CC3)CC2)C1 [Compound 255, 6-[4-[[4-[5-acetyl-3-[7-(difluoromethyl)-6-thiazol-2-yl-3,4-dihydro-2H-quinolin-1-yl]-6,7-dihydro-4H-pyrazolo[4,3-c]pyridin-1-yl]-1-piperidyl]methyl]-1-piperidyl]-N-[4-(3-chloro-4-cyano-phenoxy)cyclohexyl]pyridazine-3-carboxamide] | 0.1 to 1 | < 1 |
| CC(=O)N1CCc2c(c(N3CCCc4cc(-c5ncco5)c(C(F)F)cc43)nn2C2CCN(CC3CCN(c4ccc(C(=O)N[C@H]5CC[C@H](Oc6ccc(C#N)c(Cl)c6)CC5)nn4)CC3)CC2)C1 [Compound 256, 6-[4-[[4-[5-acetyl-3-[7-(difluoromethyl)-6-oxazol-2-yl-3,4-dihydro-2H-quinolin-1-yl]-6,7-dihydro-4H-pyrazolo[4,3-c]pyridin-1-yl]-1-piperidyl]methyl]-1-piperidyl]-N-[4-(3-chloro-4-cyano-phenoxy)cyclohexyl] pyridazine-3-carboxamide] | 0.1 to 1 | < 1 |
| COC(=O)N1c2ccc3c(nc(Cc4ccccc4)n3[C@@H]3CCC[C@H](OCC4CCN(c5ccc(C(=O)N[C@H]6CC[C@H](Oc7ccc(C#N)c(Cl)c7)CC6)nn5)CC4)C3)c2CC[C@@H]1C [Compound 257] | 0.1 to 1 | 1 to 10 |
